Experimental data from patent publication US20020137929A1, “1 - (3-heterocyclylphenyl) isothiourea, -isourea, -guanidine and -amidine herbicidal agents” (Intellectual Property Department, BASF Aktiengesellschaft, priority 1998, published 2002).

Tests used:
SETVI (Foxtail, Green) [1] = experiment: Postemergence herbicidal evaluation; format: in vivo, Setaria viridis
In short: (§1)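 Two-week-old seedlings sprayed with compound in 50/50 acetone/water plus 0.5% TWEEN 20, at about 0.0156 to 0.500 kg/ha, nozzle at 40 psi. Kept in greenhouse; rated visually 4-5 weeks after treatment on a 0-9 scale versus control, repeat tests averaged.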

ECHCG (Barnyardgrass) = experiment: Preemergence herbicidal evaluation; format: in vivo, Echinochloa crus-galli; details: rated 4-5 weeks after treatment
In short: (§2)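 Preemergence soil application of compound, sprayed in aqueous acetone at rates equivalent to about 0.0156 to 0.500 kg per hectare onto freshly sown cups. Plant response was judged by eye on a 0-9 scale four to five weeks later.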

SETVI (Foxtail, Green) [2] = experiment: Preemergence herbicidal evaluation; format: in vivo, Setaria viridis; details: rated 4-5 weeks after treatment
In short: as §2

[3] = tested on: ECHORC (Watergrass (Calif.)); experiment: Postemergence weed control under flooded paddy conditions; format: in vivo, Echinochloa oryzoides; details: postemergence weeds, 3-4 weeks after treatment
In short: (§3)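 Containers holding 3–5 cm weeds and rice at 1.5–2.5 leaves are flooded to 1.5–3 cm above soil. Compound in 50/50 v/v aqueous/acetone is then added directly to the water, about 0.0313–0.500 kg/ha. Plants are kept in the greenhouse and rated 0–9 visually at 3–4 weeks.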

ORYSAT (Rice, Tebonnet) = experiment: Postemergence herbicidal evaluation; format: in vivo, Oryza sativa, (L.) Tebonnet
In short: as §1

CYPIR (Rice Flatsedge) [4] = experiment: Preemergence weed control under flooded paddy conditions; format: in vivo, Cyperus iria; details: rated 3-4 weeks after treatment
In short: (§4)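 Flooded-pot preemergence screen with silt loam and seeds in the upper 0.5 cm. Dose about 0.0313 to 0.500 kg/ha, delivered into flood water; visual 0-9 score after 3 to 4 weeks.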

ZEAMX (Corn, Field) [5] = experiment: Preemergence herbicidal evaluation; format: in vivo, Zea mays; details: rated 4-5 weeks after treatment
In short: as §2

CYPSE (Flatsedge) [6] = experiment: Preemergence weed control under flooded paddy conditions; format: in vivo, Cyperus serotinus; details: rated 3-4 weeks after treatment
In short: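 Visual injury scored 0-9 against control three to four weeks post-treatment, greenhouse-grown. Application: acetone/water (50/50) solutions dosed directly into flood water (1.5-3 cm over silt loam, planted top 0.5 cm), roughly 0.0313 to 0.500 kg/ha active ingredient.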

[7] = tested on: SAGPY (Arrowhead (Pygmaea)); experiment: Postemergence weed control under flooded paddy conditions; format: in vivo, Sagittaria pygmaea; details: postemergence weeds, 3-4 weeks after treatment
In short: as §3

[8] = tested on: TRZAWR (Wheat, Winter, cv Riband); experiment: Preemergence herbicidal evaluation; format: in vivo, Triticum aestivum; details: rated 4-5 weeks after treatment
In short: as §2

[9] = tested on: ECHORC (Watergrass (Calif.)); experiment: Preemergence weed control under flooded paddy conditions; format: in vivo, Echinochloa oryzoides; details: rated 3-4 weeks after treatment
In short: as §4

CYPSE (Flatsedge) [10] = experiment: Postemergence weed control under flooded paddy conditions; format: in vivo, Cyperus serotinus; details: postemergence weeds, 3-4 weeks after treatment
In short: as §3

CYPIR (Rice Flatsedge) [11] = experiment: as above; format: in vivo, Cyperus iria; details: postemergence weeds, 3-4 weeks after treatment
In short: as §3

ZEAMX (Corn, Field) [12] = experiment: Postemergence herbicidal evaluation; format: in vivo, Zea mays
In short: as §1

CCOC(=O)CN1CC(=O)N(CC(=O)OCC)C1=Nc1cc(-n2c(=O)cc(C(F)(F)F)n(C)c2=O)c(F)cc1Cl [Compound 34, 2-{{2-Chloro-5-[3,6-dihydro-3-methyl-2,6-dioxo-4-(trifluoromethyl)-1(2H)-pyrimidinyl]-4-fluoro-phenyl}imino}-4-oxo-1,3-imidazolidinediacetic acid, diethyl ester]
Postemergence herbicidal rating SETVI (SETVI (Foxtail, Green) [1]; Rate 0.0158 kg/ha): 0.0 | Postemergence herbicidal rating SETVI (SETVI (Foxtail, Green) [1]; Rate 0.0315 kg/ha): 4.0 | Postemergence herbicidal rating SETVI (SETVI (Foxtail, Green) [1]; Rate 0.0630 kg/ha): 9.0 | Preemergence herbicidal rating ECHCG (ECHCG (Barnyardgrass); rate 0.0313 kg/ha): 0.0 | Preemergence herbicidal rating ECHCG (ECHCG (Barnyardgrass); rate 0.0625 kg/ha): 0.0 | Preemergence herbicidal rating ECHCG (ECHCG (Barnyardgrass); rate 0.1250 kg/ha): 2.0 | Preemergence herbicidal rating ECHCG (ECHCG (Barnyardgrass); rate 0.2500 kg/ha): 5.0 | Preemergence herbicidal rating SETVI (SETVI (Foxtail, Green) [2]; rate 0.0313 kg/ha): 3.0 | Preemergence herbicidal rating SETVI (SETVI (Foxtail, Green) [2]; rate 0.0625 kg/ha): 9.0 | Preemergence herbicidal rating SETVI (SETVI (Foxtail, Green) [2]; rate 0.1250 kg/ha): 9.0 | Preemergence herbicidal rating SETVI (SETVI (Foxtail, Green) [2]; rate 0.2500 kg/ha): 9.0 | Herbicidal rating ECHORC ([3]; rate 0.0313 kg/ha): 3.0 | Herbicidal rating ECHORC ([3]; rate 0.0625 kg/ha): 4.0 | Herbicidal rating ECHORC ([3]; rate 0.1250 kg/ha): 4.0 | Herbicidal rating ECHORC ([3]; rate 0.2500 kg/ha): 9.0 | Postemergence herbicidal rating ORYSAT (ORYSAT (Rice, Tebonnet); Rate 0.0158 kg/ha): 1.0 | Postemergence herbicidal rating ORYSAT (ORYSAT (Rice, Tebonnet); Rate 0.0315 kg/ha): 2.0 | Postemergence herbicidal rating ORYSAT (ORYSAT (Rice, Tebonnet); Rate 0.0630 kg/ha): 3.5 | Herbicidal rating CYPIR (CYPIR (Rice Flatsedge) [4]; 0.0313 kg/ha): 0.0 | Herbicidal rating CYPIR (CYPIR (Rice Flatsedge) [4]; 0.0625 kg/ha): 0.0 | Herbicidal rating CYPIR (CYPIR (Rice Flatsedge) [4]; 0.1250 kg/ha): 0.0 | Herbicidal rating CYPIR (CYPIR (Rice Flatsedge) [4]; 0.2500 kg/ha): 0.0 | Preemergence herbicidal rating ZEAMX (ZEAMX (Corn, Field) [5]; rate 0.0313 kg/ha): 0.0 | Preemergence herbicidal rating ZEAMX (ZEAMX (Corn, Field) [5]; rate 0.0625 kg/ha): 3.0 | Preemergence herbicidal rating ZEAMX (ZEAMX (Corn, Field) [5]; rate 0.1250 kg/ha): 7.0 | Preemergence herbicidal rating ZEAMX (ZEAMX (Corn, Field) [5]; rate 0.2500 kg/ha): 9.0 | Herbicidal rating CYPSE (CYPSE (Flatsedge) [6]; 0.0313 kg/ha): 0.0 | Herbicidal rating CYPSE (CYPSE (Flatsedge) [6]; 0.0625 kg/ha): 0.0 | Herbicidal rating CYPSE (CYPSE (Flatsedge) [6]; 0.1250 kg/ha): 0.0 | Herbicidal rating CYPSE (CYPSE (Flatsedge) [6]; 0.2500 kg/ha): 0.0 | Herbicidal rating SAGPY ([7]; rate 0.0313 kg/ha): 0.0 | Herbicidal rating SAGPY ([7]; rate 0.0625 kg/ha): 0.0 | Herbicidal rating SAGPY ([7]; rate 0.1250 kg/ha): 0.0 | Herbicidal rating SAGPY ([7]; rate 0.2500 kg/ha): 0.0 | Preemergence herbicidal rating TRZAWR ([8]; rate 0.0313 kg/ha): 0.0 | Preemergence herbicidal rating TRZAWR ([8]; rate 0.0625 kg/ha): 0.0 | Preemergence herbicidal rating TRZAWR ([8]; rate 0.1250 kg/ha): 1.0 | Preemergence herbicidal rating TRZAWR ([8]; rate 0.2500 kg/ha): 5.0 | Herbicidal rating ECHORC ([9]; 0.0313 kg/ha): 3.0 | Herbicidal rating ECHORC ([9]; 0.0625 kg/ha): 4.0 | Herbicidal rating ECHORC ([9]; 0.1250 kg/ha): 4.0 | Herbicidal rating ECHORC ([9]; 0.2500 kg/ha): 9.0 | Herbicidal rating CYPSE (CYPSE (Flatsedge) [10]; rate 0.0313 kg/ha): 0.0 | Herbicidal rating CYPSE (CYPSE (Flatsedge) [10]; rate 0.0625 kg/ha): 0.0 | Herbicidal rating CYPSE (CYPSE (Flatsedge) [10]; rate 0.1250 kg/ha): 0.0 | Herbicidal rating CYPSE (CYPSE (Flatsedge) [10]; rate 0.2500 kg/ha): 0.0 | Herbicidal rating CYPIR (CYPIR (Rice Flatsedge) [11]; rate 0.0313 kg/ha): 0.0 | Herbicidal rating CYPIR (CYPIR (Rice Flatsedge) [11]; rate 0.0625 kg/ha): 0.0 | Herbicidal rating CYPIR (CYPIR (Rice Flatsedge) [11]; rate 0.1250 kg/ha): 0.0 | Herbicidal rating CYPIR (CYPIR (Rice Flatsedge) [11]; rate 0.2500 kg/ha): 0.0 | Postemergence herbicidal rating ZEAMX (ZEAMX (Corn, Field) [12]; Rate 0.0158 kg/ha): 5.5 | Postemergence herbicidal rating ZEAMX (ZEAMX (Corn, Field) [12]; Rate 0.0315 kg/ha): 6.5 | Postemergence herbicidal rating ZEAMX (ZEAMX (Corn, Field) [12]; Rate 0.0630 kg/ha): 7.0
